Experimental findings from patent US11814367B2, “Inhibitors of glycogen synthase 1 (GYS1) and methods of use thereof” (Maze Therapeutics, Inc., priority 2021, dated 2023) are described below.

The subject of assay [1] is hGYS1 enzyme / glycogen synthesis in HeLa cells. As to the kind of experiment: GYS1 cell based assay (glycogen synthesis, Glucose-glo). On the set-up: species or system human. As to conditions: Homo sapiens, HeLa, 24 h, 24 h incubation, 20 mM glucose, geometric mean of at least 2 runs. An outline of the steps: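 HeLa cells starved 24 h in medium containing only 1× Glutamax were plated onto compound in medium with 20 mM glucose (1% DMSO final) for 24 h, 37 °C, 5% CO2. Acid lysates were Tris-quenched, glucoamylase-digested (pH 5.3, 1 h, 37 °C) and read by Glucose-glo luminescence. IC50 came from Hill fits, as geometric mean of ≥2 runs.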

Assay [2] deals with hGYS1 enzyme (recombinant hGYS1/GN1 protein) (Homo sapiens (Human), UniProt P13807). As to the kind of experiment: GYS1 coupled enzyme assay (PK/LDH). The class given is biochemical. The note with it: hGYS1/GN1 50 nM, UDP-Glucose 0.8 mM, G6P 1 mM; geometric mean of at least 2 runs.
hGYS1 enzyme (recombinant hGYS1/GN1 protein), sequence (P13807 whole entry): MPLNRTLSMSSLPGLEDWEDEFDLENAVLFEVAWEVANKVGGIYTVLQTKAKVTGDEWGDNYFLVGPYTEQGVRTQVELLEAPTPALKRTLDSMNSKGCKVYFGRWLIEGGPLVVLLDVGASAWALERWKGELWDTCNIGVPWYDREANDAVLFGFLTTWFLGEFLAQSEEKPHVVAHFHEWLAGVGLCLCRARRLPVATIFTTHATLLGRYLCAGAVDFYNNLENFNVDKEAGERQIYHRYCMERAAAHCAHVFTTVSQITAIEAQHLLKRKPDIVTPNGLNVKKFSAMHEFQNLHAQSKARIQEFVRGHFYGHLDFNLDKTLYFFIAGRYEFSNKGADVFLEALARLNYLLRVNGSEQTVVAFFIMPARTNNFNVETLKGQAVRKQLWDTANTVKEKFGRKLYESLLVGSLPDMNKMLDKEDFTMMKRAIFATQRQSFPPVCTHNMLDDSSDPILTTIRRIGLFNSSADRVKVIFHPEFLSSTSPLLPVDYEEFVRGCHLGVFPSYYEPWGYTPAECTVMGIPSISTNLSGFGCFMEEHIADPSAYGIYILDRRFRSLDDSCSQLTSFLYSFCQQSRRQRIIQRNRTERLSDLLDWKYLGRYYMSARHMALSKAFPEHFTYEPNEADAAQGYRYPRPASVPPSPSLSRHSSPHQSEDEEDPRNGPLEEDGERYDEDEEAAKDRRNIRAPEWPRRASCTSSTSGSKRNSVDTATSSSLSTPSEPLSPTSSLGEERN
hGYS1 enzyme (recombinant hGYS1/GN1 protein), sequence (P46976 whole entry partner): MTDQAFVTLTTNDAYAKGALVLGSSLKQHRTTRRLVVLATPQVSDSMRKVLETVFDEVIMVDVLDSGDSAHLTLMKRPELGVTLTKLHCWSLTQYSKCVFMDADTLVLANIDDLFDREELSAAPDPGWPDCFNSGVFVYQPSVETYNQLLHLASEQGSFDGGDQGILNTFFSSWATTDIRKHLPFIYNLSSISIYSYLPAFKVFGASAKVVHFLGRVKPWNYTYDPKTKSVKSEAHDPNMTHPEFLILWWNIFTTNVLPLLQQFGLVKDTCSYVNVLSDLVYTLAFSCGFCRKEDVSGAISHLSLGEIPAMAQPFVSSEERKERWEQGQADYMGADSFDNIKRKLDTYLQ
Assay [3] deals with hGYS2 enzyme (recombinant hGYS2/GN1 protein) (Homo sapiens (Human), UniProt P54840). In words: GYS2 coupled enzyme assay (PK/LDH). The class given is biochemical. The note with it: geometric mean of at least 2 assay runs on separate days, read-out: Avg_IC50. The essentials: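 Read-out: NADH loss at 340 nm, read each minute for 10 min, slope normalized to controls, duplicate % inhibition fit to Hill (0–100). Enzyme: 200 nM hGYS2/GN1; substrate 2 mM UDP-glucose plus 0.2% glycogen and 2 mM G6P; pH 7.5 Tris, 2.5% DMSO.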
hGYS2 enzyme (recombinant hGYS2/GN1 protein), sequence (P54840 whole entry): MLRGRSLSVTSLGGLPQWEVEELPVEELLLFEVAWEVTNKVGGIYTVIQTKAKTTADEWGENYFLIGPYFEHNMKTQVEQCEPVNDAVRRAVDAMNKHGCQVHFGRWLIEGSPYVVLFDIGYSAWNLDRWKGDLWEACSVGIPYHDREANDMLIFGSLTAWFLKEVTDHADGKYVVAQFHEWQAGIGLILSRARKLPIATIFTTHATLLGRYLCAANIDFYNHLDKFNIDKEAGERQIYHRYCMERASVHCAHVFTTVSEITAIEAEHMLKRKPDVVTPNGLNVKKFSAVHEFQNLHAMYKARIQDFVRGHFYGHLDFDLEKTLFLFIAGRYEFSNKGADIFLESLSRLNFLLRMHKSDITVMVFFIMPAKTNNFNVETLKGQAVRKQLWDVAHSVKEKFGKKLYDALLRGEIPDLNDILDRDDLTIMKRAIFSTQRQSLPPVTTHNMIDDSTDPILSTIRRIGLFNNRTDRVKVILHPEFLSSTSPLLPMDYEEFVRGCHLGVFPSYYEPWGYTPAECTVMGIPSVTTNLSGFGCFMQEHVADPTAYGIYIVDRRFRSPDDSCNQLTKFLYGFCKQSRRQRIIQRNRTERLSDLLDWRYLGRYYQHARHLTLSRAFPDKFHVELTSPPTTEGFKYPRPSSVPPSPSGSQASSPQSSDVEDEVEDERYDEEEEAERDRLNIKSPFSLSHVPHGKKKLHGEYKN
hGYS2 enzyme (recombinant hGYS2/GN1 protein), sequence (P46976 whole entry partner): as the sequence (P46976 whole entry partner) above

The structures appear in SMILES notation.

Regarding `Cn1nc(CC(=O)N2C[C@H](F)C[C@H]2C(=O)N[C@@H](c2ccccc2)c2ccc(C3(C)CC3)c(F)c2)c2ccccc21` [Compound 564, (2S,4R)-4-fluoro-N-[(S)-[3-fluoro-4-(1-methylcyclopropyl)phenyl](phenyl)methyl]-1-[2-(1-methyl-1H-indazol-3-yl)acetyl]pyrrolidine-2-carboxamide], the IC50 in assay [1] is 790 nM; in assay [2], 56 nM; in assay [3], over 100 µM.

For `CC(C)c1ccc([C@@H](NC(=O)[C@@H]2C[C@@H](F)CN2C(=O)Cn2ccc(=O)[nH]c2=O)c2ccccc2)nc1F` [Compound 785, (2S,4R)-1-[2-(2,4-dioxo-1,2,3,4-tetrahydropyrimidin-1-yl)acetyl]-4-fluoro-N-[(S)-[6-fluoro-5-(propan-2-yl)pyridin-2-yl](phenyl)methyl] pyrrolidine-2-carboxamide], the figures for the IC50 in assay [1], in assay [2] and in assay [3] were 130 nM, 6 nM and over 100 µM, respectively.

On to `CC(C)c1ccc([C@@H](NC(=O)[C@@H]2C[C@@H](F)CN2C(=O)Cn2ncc(N3CCC3)n2)c2ccccc2)nc1` [Compound 276, (2S,4R)-1-{2-[4-(azetidin-1-yl)-2H-1,2,3-triazol-2-yl]acetyl}-4-fluoro-N-[(S)-phenyl[5-(propan-2-yl)pyridin-2-yl]methyl]pyrrolidine-2-carboxamide], for which the IC50 is 400 nM in assay [1], 20 nM in assay [2] and over 100 µM in assay [3].

For `O=C(N[C@@H](c1ccccc1)c1ccc(C2CC2)c(F)n1)[C@@H]1C[C@@H](F)CN1C(=O)Cn1cnc2ccccc21` [Compound 294, (2S,4R)-1-[2-(1H-1,3-benzodiazol-1-yl)acetyl]-N-[(S)-(5-cyclopropyl-6-fluoropyridin-2-yl)(phenyl)methyl]-4-fluoropyrrolidine-2-carboxamide], the IC50 was 160 nM in assay [1], 6 nM in assay [2] and over 100 µM in assay [3].

`CC(C)c1ccc([C@@H](NC(=O)[C@@H]2C[C@@H](F)CN2C(=O)Cn2cc(N3CCC3)nn2)c2ccccc2)nc1` [Compound 711, (2S,4R)-1-{2-[4-(azetidin-1-yl)-1H-1,2,3-triazol-1-yl]acetyl}-4-fluoro-N-[(S)-phenyl[5-(propan-2-yl)pyridin-2-yl]methyl]pyrrolidine-2-carboxamide]: the IC50 was 630 nM in assay [1], 30 nM in assay [2] and over 100 µM in assay [3].

With `Cn1c(=O)n(CC(=O)N2C[C@H](F)C[C@H]2C(=O)N[C@@H](c2ccccc2)c2ccc(C3CC3)c(F)c2)c2ccccc21` [Compound 457, (2S,4R)-N-[(S)-(4-cyclopropyl-3-fluorophenyl)(phenyl)methyl]-4-fluoro-1-[2-(3-methyl-2-oxo-2,3-dihydro-1H-1,3-benzodiazol-1-yl)acetyl] pyrrolidine-2-carboxamide], the IC50 was 720 nM in assay [1], 32 nM in assay [2] and over 100 µM in assay [3].

For the molecule `Cc1cc(CC(=O)N2C[C@H](F)C[C@H]2C(=O)N[C@@H](c2ccccc2)c2ccc(C(C)C)c(F)n2)c[nH]c1=O` [Compound 784, (2S,4R)-4-fluoro-N-[(S)-[6-fluoro-5-(propan-2-yl)pyridin-2-yl](phenyl)methyl]-1-[2-(5-methyl-6-oxo-1,6-dihydropyridin-3-yl)acetyl]pyrrolidine-2-carboxamide], the IC50 is 310 nM in assay [1], 5 nM in assay [2] and over 100 µM in assay [3].

Regarding `O=C(N[C@@H](c1ccccc1)c1ccc(C2CC2)c(F)c1)[C@@H]1C[C@@H](F)CN1C(=O)Cc1nnc(C(F)F)o1` [Compound 427, (2S,4R)-N-[(S)-(4-cyclopropyl-3-fluorophenyl)(phenyl)methyl]-1-{2-[5-(difluoromethyl)-1,3,4-oxadiazol-2-yl]acetyl}-4-fluoropyrrolidine-2-carboxamide], the figures for the IC50 in assay [1], in assay [2] and in assay [3] were 1960 nM, 165 nM and over 100 µM, respectively.

With `Cn1nc(CC(=O)N2C[C@H](F)C[C@H]2C(=O)N[C@@H](c2ccccc2)c2ccc(C3CC3)c(F)n2)oc1=O` [Compound 306, (2S,4R)-N-[(S)-(5-cyclopropyl-6-fluoropyridin-2-yl)(phenyl)methyl]-4-fluoro-1-[2-(4-methyl-5-oxo-4,5-dihydro-1,3,4-oxadiazol-2-yl)acetyl]pyrrolidine-2-carboxamide], the figures for the IC50 in assay [1], in assay [2] and in assay [3] were 810 nM, 78 nM and over 100 µM, respectively.

Consider `CC(C)c1ccc([C@@H](NC(=O)[C@@H]2C[C@@H](F)CN2C(=O)C(C)n2cnnn2)c2ccccc2)cc1F` (single isomer, unassigned) [Compound 766, (2S,4R)-4-fluoro-N-[(S)-[3-fluoro-4-(propan-2-yl)phenyl](phenyl)methyl]-1-[(2R) or (2S)-2-(1H-1,2,3,4-tetrazol-1-yl)propanoyl]pyrrolidine-2-carboxamide], for which the IC50 was 350 nM in assay [1], 38 nM in assay [2] and over 100 µM in assay [3].

Regarding `CC(C)c1ccc([C@@H](NC(=O)[C@@H]2C[C@@H](F)CN2C(=O)Cn2cnnc2)c2ccccc2)nc1F` [Compound 390, (2S,4R)-4-fluoro-N-[(S)-[6-fluoro-5-(propan-2-yl)pyridin-2-yl](phenyl)methyl]-1-[2-(4H-1,2,4-triazol-4-yl)acetyl] pyrrolidine-2-carboxamide], the IC50 in assay [1] is 1030 nM; in assay [2], 27 nM; in assay [3], over 100 µM.

As for `O=C(N[C@@H](c1ccccc1)c1ccc(C2CC2)c(F)c1)[C@@H]1C[C@@H](F)CN1C(=O)CNc1cnccn1` [Compound 471, (2S,4R)-N-[(S)-(4-cyclopropyl-3-fluorophenyl)(phenyl)methyl]-4-fluoro-1-{2-[(pyrazin-2-yl)amino]acetyl}pyrrolidine-2-carboxamide], the IC50 was 700 nM in assay [1], 29 nM in assay [2] and over 100 µM in assay [3].

Turning to `O=C(N[C@@H](c1ccccc1)c1ccc(C2CC(F)(F)C2)c(F)c1)[C@@H]1C[C@@H](F)CN1C(=O)Cc1cnn[nH]1` [Compound 546, (2S,4R)-N-[(S)-[4-(3,3-difluorocyclobutyl)-3-fluorophenyl](phenyl)methyl]-4-fluoro-1-[2-(1H-1,2,3-triazol-5-yl)acetyl]pyrrolidine-2-carboxamide], the IC50 in assay [1] was 510 nM; in assay [2], 27 nM; in assay [3], over 100 µM.

As for `CC(C)c1ccc([C@@H](NC(=O)[C@@H]2C[C@@H](F)CN2C(=O)Cc2nn(C)c(=O)o2)c2ccccc2)nc1F` [Compound 401, (2S,4R)-4-fluoro-N-[(S)-[6-fluoro-5-(propan-2-yl)pyridin-2-yl](phenyl)methyl]-1-[2-(4-methyl-5-oxo-4,5-dihydro-1,3,4-oxadiazol-2-yl)acetyl]pyrrolidine-2-carboxamide], the results for the IC50 in assay [1], in assay [2] and in assay [3] were 290 nM, 10 nM and over 100 µM, respectively.

Consider `CC(C)c1ccc([C@@H](NC(=O)[C@@H]2C[C@@H](F)CN2C(=O)Cn2ncc(N3CC(F)(F)C3)n2)c2ccccc2)nc1` [Compound 277, (2S,4R)-1-{2-[4-(3,3-difluoroazetidin-1-yl)-2H-1,2,3-triazol-2-yl]acetyl}-4-fluoro-N-[(S)-phenyl[5-(propan-2-yl)pyridin-2-yl]methyl]pyrrolidine-2-carboxamide], for which the IC50 in assay [1] is 650 nM; in assay [2] it was 31 nM; in assay [3], over 100 µM.

Consider `CC(C)c1ccc([C@@H](NC(=O)[C@@H]2C[C@@H](F)CN2C(=O)COC(=O)N(C)C)c2ccccc2)cc1F` [Compound 360, 2-[(2S,4R)-4-fluoro-2-{[(S)-[3-fluoro-4-(propan-2-yl)phenyl](phenyl)methyl]carbamoyl}pyrrolidin-1-yl]-2-oxoethyl N,N-dimethylcarbamate], for which the IC50 is 310 nM in assay [1], 19 nM in assay [2] and over 100 µM in assay [3].

Consider `O=C(N[C@@H](c1ccccc1)c1ccc(C2CC2)c(F)n1)[C@@H]1C[C@@H](F)CN1C(=O)CNC(=O)N1CC(F)(F)C1` [Compound 315, (2S,4R)-N-[(S)-(5-cyclopropyl-6-fluoropyridin-2-yl)(phenyl)methyl]-1-{2-[(3,3-difluoroazetidine-1-carbonyl)amino]acetyl}-4-fluoropyrrolidine-2-carboxamide], for which the IC50 in assay [1] is 730 nM; in assay [2], 23 nM; in assay [3], over 100 µM.

As to `CC(C)c1ccc([C@@H](NC(=O)[C@@H]2C[C@@H](F)CN2C(=O)Cc2cnn[nH]2)c2ccccc2)cc1` [Compound 1, (2S,4R)-1-(2-(1H-1,2,3-triazol-5-yl)acetyl)-4-fluoro-N-((S)-(4-isopropylphenyl)(phenyl)methyl) pyrrolidine-2-carboxamide], the figures for the IC50 in assay [1], in assay [2] and in assay [3] were 420 nM, 33 nM and over 100 µM, respectively.

For `Cc1cnc(CC(=O)N2C[C@H](F)C[C@H]2C(=O)N[C@@H](c2ccccc2)c2ccc(C(C)C)cn2)o1` [Compound 271, (2S,4R)-4-fluoro-1-[2-(5-methyl-1,3-oxazol-2-yl)acetyl]-N-[(S)-phenyl[5-(propan-2-yl)pyridin-2-yl]methyl]pyrrolidine-2-carboxamide], the IC50 in assay [1] was 870 nM; in assay [2] it was 36 nM; in assay [3], over 100 µM.
